Assay results: US20190070159A1, “NOVEL PHARMACEUTICAL USES” (TAKEDA PHARMACEUTICAL COMPANY LIMITED, priority 2015, published 2019)

What was measured:
[1] = tested on: non-erosive reflux disease (NERD); details: NERD patients, cited from earlier work
pH holding time = details: cited from earlier work
[2] = Safety and tolerability, phase 3 study in PPI-resistant EE patients; format: in vivo, human; details: subjects with PPI-resistant EE of LA Grades A to D, 20 mg or 40 mg for 8 weeks
Description: (§1) This was a phase 3, randomized, double-blind, parallel-group, multicenter study to evaluate the dose-response relationships of the acid-inhibitory effect and efficacy of TAK-438 (20 mg and 40 mg) in patients with PPI-resistant EE of LA Classification Grades A to D.
A patient with PPI-resistant EE was defined as a patient who had EE of LA Classification Grades A to D endoscopically confirmed at the examination in the run-in period after receiving a regular or higher PPI dose for at least 8 weeks until immediately before the start of the run-in period. This study consisted of a 7- to 14-day run-in period and an 8-week treatment period. Subjects who entered the run-in period orally received 1 capsule of the PPI lansoprazole 30 mg once daily after breakfast for at least 7 days, but not more than 14 days. As a rule, subjects underwent endoscopic examination 2 days before the end of the run-in period, after receiving the study medication for the run-in period for at least 5 days. The acid-inhibitory effect of the study medication during the run-in period was evaluated by monitoring gastroesophageal pH for 24 hours, beginning from the day before the end of the run-in period. The subject was then randomized at a 1:1 ratio to receive either TAK-438 20 mg or 40 mg and entered the treatment period. […]

gastric acid secretion [3] = details: rats, versus the PPI lansoprazole; cited from earlier work
[4] = tested on: PPI-resistant EE of LA Classification Grades A to D; test: EE healing rate after 8-week treatment, phase 3 study in PPI-resistant EE patients; format: in vivo, human
Description: as §1
(§2) A patient with PPI-resistant EE was defined as a patient who had EE of LA Classification Grades A to D endoscopically confirmed at the examination in the run-in period after receiving a regular or higher PPI dose for at least 8 weeks until immediately before the start of the run-in period. This study consisted of a 7- to 14-day run-in period and an 8-week treatment period. Subjects who entered the run-in period orally received 1 capsule of the PPI lansoprazole 30 mg once daily after breakfast for at least 7 days, but not more than 14 days. As a rule, subjects underwent endoscopic examination 2 days before the end of the run-in period, after receiving the study medication for the run-in period for at least 5 days. The acid-inhibitory effect of the study medication during the run-in period was evaluated by monitoring gastroesophageal pH for 24 hours, beginning from the day before the end of the run-in period. The subject was then randomized at a 1:1 ratio to receive either TAK-438 20 mg or 40 mg and entered the treatment period. Subjects orally received the assigned medications once daily after breakfast for 8 weeks from the day after the end of the run-in period.
Subject eligibility for this study required that the subject had received a regular or higher dose of PPI for EE treatment for at least 8 weeks until immediately before the start of the run-in period. In addition, the subject had EE for which a regular or higher dose of PPI had not been effective, or more specifically, the subject had EE of LA Classification Grades A to D endoscopically confirmed at the examination in the run-in period.
The secondary endpoint was the EE healing rate after 8-week treatment with TAK-438.

gastric acid secretion [5] = test: 24-hour gastroesophageal pH monitoring, phase 3 study in PPI-resistant EE patients; format: in vivo, human
Description: as §1, §2
Efficacy: The primary endpoint was the time course of gastroesophageal pH changes over 24 hours at steady state in the treatment period. The primary measure was gastric and esophageal pH 4 holding time ratios (HTRs). Other measures were gastric and esophageal pH 1, 2, 3, 5, 6, and 7 HTRs, mean gastric pH, and mean esophageal pH.

erosive esophagitis (EE) = details: patients with erosive esophagitis; cited from earlier work
[6] = tested on: GERD symptoms (heartburn and acid regurgitation); test: Clinical study in PPI partial responders (NERD and LA grade A EE), symptom diary; format: in vivo, human; details: TAK-438 20 mg QD or 40 mg QD for 4 weeks
Description: A study is held to evaluate TAK-438 (20 mg QD and 40 mg QD) in subjects who have a history of heartburn-predominant GERD despite an adequate course of PPI treatment and who are then confirmed to have a partial response to a 4-week treatment course with a PPI (esomeprazole 40 mg QD).
Subjects are eligible for participation in the study if they: • have a documented history of symptoms of both heartburn and acid regurgitation prior to entry into the study; • have a history of heartburn-predominant GERD despite an adequate course of PPI treatment; • continue to have symptoms of heartburn (with or without regurgitation) following 4 weeks treatment with a high dose of esomeprazole 40 mg QD; • have symptoms of heartburn (with or without regurgitation) which increase following a 2-week washout period compared with the prior 4 week course of high dose esomeprazole 40 mg QD.
The subjects entered into the study are NERD and mild (LA grade A, as defined by the Los Angeles Classification) erosive esophagitis (EE). […]

[7] = TAK-438 20 mg once daily, after 2 weeks, subjects with PPI-resistant EE
[8] = TAK-438 40 mg once daily, after 2 weeks, subjects with PPI-resistant EE
[9] = both treatment groups (20 mg and 40 mg), after 2 weeks

In the case of `Cc1cccc(C)c1CNc1cc(C(=O)NCCO)cn2c(C)c(C)nc12` [AZD0865], the “clinical benefit over esomeprazole in treatment of NERD symptoms” value ([1]; 4 weeks) is given as “did not provide clinical benefit over esomeprazole”, the duration of effect [1] is given as “prolonged, dose-dependent duration of effect” and the “inhibition of acid production” value [1] is given as “rapid inhibition of acid production”.
For `CNCc1cc(-c2ccccc2F)n(S(=O)(=O)c2cccnc2)c1.O=C(O)/C=C/C(=O)O` [TAK-438, 1-[5-(2-fluorophenyl)-1-(pyridin-3-ylsulfonyl)-1H-pyrrol-3-yl]-N-methylmethanamine], the “time to near maximal effect on pH holding time” value (pH holding time; after dosing, maintained with chronic dosing) is listed as at most 24 hours, the onset of action (pH holding time; after the first dose, single and multiple repeat-dosing studies) is listed as “rapid onset of action after the first dose” and the safety and tolerability [2] is listed as “safe, and well tolerated”. The “inhibitory action on gastric acid secretion compared with lansoprazole” value (gastric acid secretion [3]) was “more potent and longer-lasting”, the “EE healing rate after 8-week treatment” value ([4]; TAK-438 20 mg group, 4 out of 9 subjects) was 44.4% and the “EE healing rate after 8-week treatment” value ([4]; TAK-438 40 mg group, 5 out of 9 subjects) was 55.6%. For the same molecule, the overall efficacy ([4]; subjects with PPI-resistant EE of LA Grades A to D, 20 mg or 40 mg) was “effective”, the “mean 24-hour esophageal pH 4 HTR” value (gastric acid secretion [5]; [7]) was 98.41% and the “mean 24-hour gastric pH 4 HTR” value (gastric acid secretion [5]; [7]) was 96.46%. For the same molecule, the “effect on gastric acid secretion” value (gastric acid secretion [5]; TAK-438 20 mg or 40 mg, nighttime as well as daytime, subjects with PPI-resistant EE) was “suppressed gastric acid secretion”, the “mean 24-hour esophageal pH 4 HTR” value (gastric acid secretion [5]; [8]) was 99.86% and the “mean 24-hour gastric pH 4 HTR” value (gastric acid secretion [5]; [8]) was 100.00%. The “increases in gastric and esophageal pH 4 HTRs, 40 mg versus 20 mg group” value (gastric acid secretion [5]; after 2 weeks, differences between groups not statistically significant) was “greater in the TAK-438 40 mg group than in the TAK-438 20 mg group”, the “mean 24-hour esophageal pH 1, 2, 3, 6, and 7 HTRs, change from baseline” value (gastric acid secretion [5]; [9]) was “remained almost unchanged” and the “mean 24-hour esophageal pH 5 HTR, change from baseline” value (gastric acid secretion [5]; [9]) was “slightly increased”. The “mean 24-hour gastric pH 2, 3, 5, 6, and 7 HTRs, change from baseline” value (gastric acid secretion [5]; [9]) was “increased from baseline”, the “mean 24-hour gastric pH 1 HTR” value (gastric acid secretion [5]; both treatment groups (20 mg and 40 mg), after 2 weeks of TAK-438, baseline also 100.00%) was 100.00% and the “mean gastric pH, change from baseline” value (gastric acid secretion [5]; both treatment groups, 12-hour and 24-hour periods) was “increased from baseline”. For the same molecule, the “mean gastric pH 4 HTRs during daytime and nighttime” value (gastric acid secretion [5]; both treatment groups, changes greater during nighttime than daytime) was “increased during both the daytime and nighttime with statistical significance”, the “mean esophageal pH, change from baseline” value (gastric acid secretion [5]; both treatment groups, lesser extent than mean gastric pH) was “also increased” and the “significance of increase from baseline in 24-hour gastric pH 4 HTR” value (gastric acid secretion [5]; both treatment groups, lower limits of 95% CI of mean changes greater than 0) was “statistically significant”. The “significance of change from baseline in 24-hour esophageal pH 4 HTR” value (gastric acid secretion [5]; either treatment group (20 mg, 40 mg)) was “not statistically significant”, the “efficacy in treatment of EE and maintenance of EE healing” value (erosive esophagitis (EE)) was “effective for the treatment of EE and maintenance of EE healing” and the “heartburn and/or regurgitation symptoms” value [6] was “can reduce heartburn and/or regurgitation symptoms throughout the whole day and night”. For the same molecule, the “percentage of heartburn-free days and nights (24-hour periods)” value [6] was “can increase the percentage of heartburn-free days and nights”.
